Test results: patent US6916927B2, “Pyrazolopyrimidinones which inhibit type 5 cyclic guanosine 3′,5′-monophosphate phosphodiesterase (cGMP-PDE5) for the treatment of sexual dysfunction” (Pfizer Inc., priority 1997, dated 2005)

biological target: cGMP-specific PDE (PDE5) (UniProt O76074); assay: In vitro PDE inhibitory activity (IC50) against cGMP PDE5; assay type: biochemical, human or rabbit; settings: in vitro activities as inhibitors of cGMP PDE5
Procedure: In vitro PDE inhibitory activities against cyclic guanosine 3′,5′-monophosphate (cGMP) and cyclic adenosine 3′,5′-monophosphate (cAMP) phosphodiesterases were determined by measurement of their IC50 values (the concentration of compound required for 50% inhibition of enzyme activity).
The required PDE enzymes were isolated from a variety of sources, including human corpus cavernosum, human and rabbit platelets, human cardiac ventricle, human skeletal muscle and bovine retina, essentially by the method of W. J. Thompson and M. M. Appleman (Biochem., 1971, 10, 311). In particular, the cGMP-specific PDE (PDE5) and the cGMP-inhibited cAMP PDE (PDE3) were obtained from human corpus cavernosum tissue, human platelets or rabbit platelets; the cGMP-stimulated PDE (PDE2) was obtained from human corpus cavernosum; the calcium/calmodulin (Ca/CAM)-dependent PDE (PDE1) from human cardiac ventricle; the cAMP-specific PDE (PDE^4) from human skeletal muscle; and the photoreceptor PDE (PDE6) from bovine retina.
Assays were performed using a modification of the “batch” method of W. J. Thompson et al. (Biochem., 1979, 18, 5228).

SMILES	IC50
CCCc1c2nc(-c3cc(S(=O)(=O)N4CCN(C)CC4)ccc3OCC)[nH]c(=O)c2nn1Cc1ccccc1 [Example 87, 2-Benzyl-5-[2-ethoxy-5-(4-methylpiperazin-1-ylsulphonyl)phenyl]-3-n-propyl-2,6-dihydro-7H-pyrazolo[4,3-d]pyrimidin-7-one]	12 nM
CCCc1c2nc(-c3cc(S(=O)(=O)N4CCN(C)CC4)ccc3OCC)[nH]c(=O)c2nn1CC1CCC1 [Example 126, 2-Cyclobutylmethyl-5-[2-ethoxy-5-(4-methylpiperazin-1-ylsulphonyl)phenyl]-3-n-propyl-2,6-dihydro-7H-pyrazolo[4,3-d]pyrimidin-7-one]	9.2 nM
CCCOc1ccc(S(=O)(=O)N2CCN(CC)CC2)cc1-c1nc2c(CCC)n(CCN3CCOCC3)nc2c(=O)[nH]1 [Example 108, 5-[5-(4-Ethylpiperazin-1-ylsulphonyl)-2-n-propoxyphenyl]-2-(2-morphin-4-ylethyl)-3-n-propyl-2,6-dihydro-7H-pyrazolo[4,3-d]pyrimidin-7-one]	2.1 nM
CCCOc1ccc(S(=O)(=O)N2CCN(CC)CC2)cc1-c1nc2c(CCC)n(-c3ccccc3NS(C)(=O)=O)nc2c(=O)[nH]1 [Example 117, 5-[5-(4-Ethylpiperazin-1-ylsulphonyl)-2-n-propoxyphenyl]-2-(2-methanesulphonamidophenyl)-3-n-propyl-2,6-dihydro-7H-pyrazolo[4,3-d]-pyrimidin-7-one]	3.2 nM
CCCOc1ccc(S(=O)(=O)N2CCN(CC)CC2)cc1-c1nc2c(CCC)n(Cc3cccc[n+]3[O-])nc2c(=O)[nH]1 [Example 129, 5-[5-(4-Ethylpiperazin-1-ylsulphonyl)-2-n-propoxyphenyl]-2-(1-oxidopyridin-2-yl)methyl-3-n-propyl-2,6-dihydyro-7H-pyrazolo[4,3-d]pyrimidin-7-one]	6.5 nM
CCCc1nn(Cc2ccccc2)c2c(=O)[nH]c(-c3cc(S(=O)(=O)N4CCN(C)CC4)ccc3OCC)nc12 [Example 41, 1-Benzyl-5-[2-ethoxy-5-(4-methylpiperazin-1-ylsulphonyl)phenyl]-3-n-propyl-1,6-dihydro-7H-pyrazolo[4,3-d]pyrimidin-7-one]	3.9 nM
CCCOc1ccc(S(=O)(=O)N2CCN(C)CC2)cc1-c1nc2c(CCC)n(Cc3ncnn3C)nc2c(=O)[nH]1 [Example 77, 5-[5-(4-Methylpiperazin-1-ylsulphonyl)-2-n-propoxyphenyl]-2-(1-methyl-1,2,4-triazol-5-yl)methyl-3-n-propyl-2,6-dihydro-7H-pyrazolo[4,3-d]pyrimidin-7-one]	7.1 nM
CCCOc1ccc(S(=O)(=O)N2CCN(C)CC2)cc1-c1nc2c(CCC)nn(Cc3ncnn3C)c2c(=O)[nH]1 [Example 31, 5-[5-(4-Methylpiperazin-1-ylsulphonyl)-2-n-propoxyphenyl]-1(1-methyl-1,2,4-triazol-5-yl)methyl-3-n-propyl-1,6-dihydro-7H-pyrazolo-[4,3-d]pyrimidin-7-one]	4 nM
CCCOc1ccc(S(=O)(=O)N2CCN(C)CC2)cc1-c1nc2c(CCC)n(-c3ncccn3)nc2c(=O)[nH]1 [Example 125, 5-[5-(4-Methylpipierazin-1-ylsulphonyl)-2-n-propoxyphenyl]-3-n-propyl-2-pyrimidin-2-yl-2,6-dihydro-7H-pyrazolo[4,3-d]pyrimidin-7-one]	2.8 nM
CCCOc1ccc(S(=O)(=O)N2CCN(CC)CC2)cc1-c1nc2c(CCC)nn(CCN3CCOCC3)c2c(=O)[nH]1 [Example 100, 5-[5-(4-Ethylpiperazin-1-ylsulphonyl)-2-n-propoxyphenyl]-1-(2-morpholin-4-ylethyl)-3-n-propyl-1,6-dihydro-7H-pyrazolo[4,3-d]pyrimidin-7-one]	1.9 nM
CCCOc1ccc(S(=O)(=O)N2CCN(CCO)CC2)cc1-c1nc2c(CCC)nn(Cc3ccccn3)c2c(=O)[nH]1 [Example 4, 5-{5-[4-(2-Hydroxyethyl)piperazin-1-ylsulphonyl]-2-n-propoxyphenyl}-3-n-propyl-1-(pyridin-2-yl)methyl-1,6-dihydro-7H-pyrazolo[4,3-d]pyrimidin-7-one]	2.2 nM
CCCOc1ccc(S(=O)(=O)N2CCN(CCO)CC2)cc1-c1nc2c(CCC)n(Cc3ccccn3)nc2c(=O)[nH]1 [Example 7, 5-{5-[4-(2-Hydroxyethyl)piperazin-1-ylsulphonyl]-2-n-propoxyphenyl}-3-n-propyl-2-(pyridin-2-yl)methyl-2,6-dihydro-7H-pyrazolo[4,3-d]pyrimidin-7-one]	2.6 nM
